In patent US20100249138A1, “MPZP: A SMALL MOLECULE CORTICOTROPIN-RELEASING FACTOR TYPE 1 RECEPTOR (CRF1) ANTOGONIST” (priority 2007, published 2010):
Read-outs that look alike come from different tables or passages of the source. No end group written: not given here.

Columns and labels:
[1] = tested on: cocaine-induced conditioned place preference; conditions: rats; cited from earlier work
[2] = tested on: cocaine self-administration; conditions: cited from earlier work
[3] = tested on: plasma corticosterone; conditions: rats; cited from earlier work
[4] = tested on: rat pituitary corticotropes; conditions: cited from earlier work
[5] = biological target: T1, CRF1 receptors (Rattus norvegicus, UniProt P35353); test: [125I]-Tyr0-sauvagine competition binding, rat cerebellar membrane homogenates; parameters: from tissue; host or cells: rat cerebellum, membrane homogenate; conditions: six independent experiments, read-out: PIC50, displacement of specific [125I]-Tyr0-sauvagine binding (converted)
T1 sequence (P35353 24-415): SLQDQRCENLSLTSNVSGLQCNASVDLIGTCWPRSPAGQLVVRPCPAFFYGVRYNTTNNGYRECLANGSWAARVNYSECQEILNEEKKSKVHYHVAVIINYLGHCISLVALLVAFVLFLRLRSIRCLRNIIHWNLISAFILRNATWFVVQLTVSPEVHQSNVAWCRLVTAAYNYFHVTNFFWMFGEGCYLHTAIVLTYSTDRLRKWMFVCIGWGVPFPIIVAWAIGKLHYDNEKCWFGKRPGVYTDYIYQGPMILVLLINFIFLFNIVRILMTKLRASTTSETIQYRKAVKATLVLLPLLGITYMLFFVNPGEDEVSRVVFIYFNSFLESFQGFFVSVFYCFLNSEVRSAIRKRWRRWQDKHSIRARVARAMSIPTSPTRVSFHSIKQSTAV
Experimental: Binding activity of MPZP was determined in a competition assay using […] (2200 Ci/mmol; Perkin Elmer, Waltham, Mass.) as the radioligand. Cerebellum was homogenized in homogenizing buffer (Dulbecco's phosphate-buffered saline [PBS]:1.5 mM KH2PO4, 8.1 mM Na2HPO4, 2.7 mM KCl, 138 mM NaCl, pH 7.2, supplemented with 10 mM MgCl2, 2 mM EGTA) using a Polytron (Dispersing and Mixing Technology, Kinematica, Littau-Lucerne, Switzerland) at setting 6 for 2×15 seconds on ice. The homogenate was centrifuged at 45,000×g for 20 minutes at 4° C. The pellet was resuspended and spun at 45,000×g for 20 minutes at 4° C. The final pellet was resuspended in assay buffer (homogenizing buffer supplemented with protease inhibitor; 1 tablet/10 ml; Sigma CAT#58829-20TAB, St. Louis, Mo., pH 7.4) using a Polytron.
Med. Chem. (2000) 8:181-189], whose structural formula is shown below.
Total binding was determined using assay buffer in lieu of a CRF1 antagonist, and nonspecific binding was determined in the presence of 1 μM unlabeled sauvagine. The final radioligand concentration was 0.2 nM, and the reaction was incubated at room temperature for 2 hours. […] The pellet-containing tip was cut off and counted in an automated 10-detector gamma counter (MicroMedic Apex, ICN Biomedical, Costa Mesa, Calif.) at 80% efficiency. […]

[6] = tested on: precipitated-withdrawal induced anxiety-like behavior; test: Defensive burying test during mecamylamine-precipitated nicotine withdrawal; assay type: in vivo, rat; conditions: for Burying / Freezing / Grooming / Latency to bury / Rearing / Resting: Vehicle + Mecamylamine
Experimental: Nicotine hydrogen tartrate salt (Sigma, Natick) was dissolved in saline at pH 7.4 and experimenter-administered via minipump or self-administered via indwelling jugular catheter. Doses are expressed as free base. Mecamylamine (Sigma; Natick, Mass.) was dissolved in saline and administered i.p. (1 ml/kg). The CRF1 antagonist (N,N-bis(2-methoxyethyl)-3-(4-methoxy-2-methylphenyl)-2,5-dimethyl-pyrazolo-[1,5α]pyrimidin-7-amine, or MPZP) was synthesized at The Scripps Research Institute by Dr. P. Wirshing, dissolved in 20% hydroxypropyl beta-cyclodextrin (Cavitron, Cargill) in isotonic saline at pH 4.5 and administered s.c. (2 ml/kg, 45 to 60 min before testing). Rat/human CRF was supplied by Dr. Jean Rivier, The Salk Institute. CRF was dissolved in 1× PBS (pH 7.4) and prepared fresh few minutes before intracerebral injection. The doses and time of injections were selected based on previous studies [Richardson et al., Program No. 783. 4 Neuroscience Meeting Planner. Atlanta, Ga.: Society for Neuroscience, OnlineI (2006); Specio et al., Program No. 777. 11 Neuroscience Meeting Planner. Washington, D.C.: Society for Neuroscience, Online (2004)].
Rats were subcutaneously implanted with osmotic minipumps delivering either saline (n=33) or nicotine (n=31) (3.16 mg/kg/day, free base, s.c.) as described above. After 14 days of pump exposure, testing was performed 5-8 hours into the dark cycle in a standard cage with 2 inches of bedding (wood shavings) along the bottom and a small hole centered in one side one inch above the bedding to accommodate the shock-probe. Rats were habituated (45 minutes) to the test cage for 2 days prior to testing. On the test day, mecamylamine or its vehicle were administered 30 minutes before behavioral testing, and the CRF1 antagonist or its vehicle were administered 45 minutes before behavioral testing (n=7-9 per group). On contact with the probe and shock delivery (using a Coulbourn precision shocker, 1.5 mA, AC, <1 s), verified by a startle response, the probe was deactivated. The latency and duration of probe-directed burying, rearing, resting, grooming, and freezing were measured from videotape over a 10 minutes period by an experimenter blind to the subject treatment condition using a computer program.

[7] = tested on: extracellular CRF-L-IR in the central nucleus of the amygdala; test: In vivo microdialysis and radioimmunoassay of CRF-like immunoreactivity in the central nucleus of the amygdala; parameters: species or system rat; conditions: mecamylamine 1.5 mg/kg i.p.
Experimental: The changes in interstitial levels of CRF-like-immunoreactivity (CRF-L-IR) in the central nucleus of the amygdala were examined during mecamylamine-precipitated withdrawal (1.5 mg/kg, ip). Rats were subcutaneously implanted with osmotic minipumps (model 2m12, 14 days, 5 μL/hour; Durect Corporation, Palo Alto, Calif.) delivering either saline (non-dependent, n=5) or nicotine (nicotine-dependent, n=7) (3.16 mg/kg/day, free base, s.c.) and a microdialysis guide cannula (SciPro Inc., Sanborn N.Y., USA) stereotaxically positioned 1 mm above the central nucleus of the amygdala using the following coordinates (AP −3.3 mm; ML ±4.2 mm; V −6.5 mm, from dura with flat skull). After 14 days of pump exposure, a microdialysis probe (1 mm PES membrane, 15 kDA MW cutoff; SciPro Inc., Sanborn N.Y., USA) was lowered into the guide cannula and allowed to equilibrate for 12 hours (1 μl/min flow rate, artificial cerebrospinal fluid). […]
Dialysate CRF-like immunoreactivity was quantified with a sensitive and specific solid-phase radioimmunoassay (RIA) adapted from Zorrilla et al. Psychopharmacology (Berl). […] Wells were rinsed, blotted dry and separated, and residual radioactivity was counted by a gamma counter for 5 minutes per well.

[8] = Debruyne et al. 2003; cited from earlier work
[9] = tested on: anxiety-like behavior of naive rats; test: Defensive burying test after bilateral CRF infusion in the central nucleus of the amygdala; assay type: in vivo, rat; conditions: CRF 30 pmol total dose, bilateral intra-amygdala
Experimental: To confirm that increases of CRF in the central nucleus of the amygdala elicit anxiety-like behavior, anxiety-like behavior was measured using the defensive burying test, after bilateral infusion of CRF (30 pmol total dose) or vehicle in the central nucleus of the amygdala of naive rats one minute before beginning of the burying test. CRF administered directly into the amygdala increased the time spent burying and decreased the latency to bury during the first 5 minutes after infusion (Table 2),
Rats were anesthetized with an isoflurane-oxygen mixture, and 26-gauge stainless steel guide cannulas (Plastics One, Roanoke, Va.) aimed 2 mm above the central nucleus of the amygdala stereotaxically were implanted bilaterally: AP −2.6 mm; ML ±4.2 mm; V −5.2 mm, from dura, with flat skull (Paxinos and Watson, 1998). The guide cannulas were secured to the skull with dental cement and anchor screws, and guide cannulas were maintained with stylets. Intracerebral injections were administered with the use of injectors (33-gauge; Plastics One) that projected 2 mm past the guide cannula to the central nucleus of the amygdala. The injectors were attached to 70 cm of calibrated polyethylene-20 tubing preloaded with drug solution. This cohort of rats had been extensively handled previously in the context of a food intake study, in which they received administration of a CRF1 receptor antagonist subcutaneously and into the central nucleus of the amygdala in a Latin-square design. A washout period of 7 days was imposed before the present study with all subjects maintained on chow, during which animals were handled daily. Rats were randomly assigned to CRF vs. vehicle conditions balanced for previous diet history, which was statistically unrelated to performance in the defensive burying test. The CRF group (n=5) was infused bilaterally (30 pmol total dose) with a volume of 0.25 μL/side over 30 seconds using Hamilton microsyringes and 2 infusion pumps (Harvard Apparatus, Holliston, Mass.). The control group (n=5) received the same volume of PBS. Injectors were removed from guide cannulae 1 minute after the end of the infusions, and rats were returned to the home cage for 1 minute before being tested in the defensive burying test.

[10] = nicotine-dependent rats, mecamylamine injection

For CCCCN(CC)c1nc(C)nc2c1c(C)cn2-c1c(C)cc(C)cc1C [CP-154,526], the “cocaine-induced conditioned place preference” value [1] is listed as “reduced”, the cocaine self-administration ([2]; 0.5 mg/kg/injection cocaine, rats) is listed as “reduced” and the cocaine self-administration ([2]; rats with limited daily drug access (1 h/day), pretreatment) is listed as “dose-dependent decreases”. The food-reinforced responding ([2]; rats, pretreatment) was “does not affect”.
For CCC(CC)Nc1cc(C)nc2c(-c3ccc(OC)cc3C)c(C)nn12 [DMP904], the “stress-induced increase of plasma corticosterone” value [3] is listed as “dose-dependently inhibited”, the ACTH release [4] is listed as “inhibited” and the IC50 [5] is listed as 2.14 nM.
In the case of CNC1(C)C2CCC(C2)C1(C)C (centres unmarked) [mecamylamine, reference compound], the Burying ([6]; nicotine pump) is reported as 271 ± 46 s, the Freezing ([6]; nicotine pump) is reported as 1 ± 1 s and the Grooming ([6]; nicotine pump) is reported as 16 ± 5 s. The Latency to bury ([6]; nicotine pump) was 31 ± 9 s, the Rearing ([6]; nicotine pump) was 105 ± 25 s and the Resting ([6]; nicotine pump) was 49 ± 21 s. The “change in latency to bury compared to vehicle injection” value [6, 10] was −70%, the “change in time spent burying compared to vehicle injection” value [6, 10] was “+243%” and the anxiety-like behavior ([6]; non-dependent rats, mecamylamine injection) was “did not alter”. It also gave a Burying ([6]; saline pump) of 135 ± 39 s, a Freezing ([6]; saline pump) of 1 ± 1 s and a Grooming ([6]; saline pump) of 30 ± 12 s. It also gave a Latency to bury ([6]; saline pump) of 87 ± 25 s, a Rearing ([6]; saline pump) of 118 ± 14 s and a Resting ([6]; saline pump) of 67 ± 24 s. The “increase of CRF-L-IR in the central amygdala compared with baseline” value ([7]; nicotine-dependent rats) was “over 500%”, the “increase of CRF-L-IR in the central amygdala” value ([7]; saline-treated (non-dependent) rats) was “not observed” and the pharmacokinetic half-life [8] was “about 1 hour”.
In the case of “CRF: Corticotropin-releasing factor, a 41 amino-acid residue peptide; rat/human CRF infused into the central nucleus of the amygdala (SEEPPISLDLTFHLLREVLEMARAEQLAQQAHSNRKLMEII; ends and bridges not checked; UniProt P06850 154-194, looked up)”, the Grooming [9] is reported as 30 ± 27 s, the “Latency to bury” value [9] is reported as 165 ± 91 s and the Rearing [9] is reported as 91 ± 15 s. For the same molecule, the Burying ([9]; first 5 minutes after infusion) was 7.1 ± 4.7 s.
